Reference: EP0432983A2 (priority 1989, dated 1991)
Converted amounts (≈) assume the structure as drawn.

Legend:
[1] = tested on: P-388 (mouse DBA/2 lymphoid neoplasm); experiment: General anti-tumour assay, P-388; format: cell-based
Method: (§1) With compounds AH-3, AH-4 and AH-5, four general anti-tumour assays and two cytotoxicity assays were performed. Current screening protocols were employed using test substance diluted as above and at varying concentrations. Tests were performed against the tumour cells P-388 (mouse DBA/2 lymphoid neoplasm), A-549 (human lung carcinoma), HT-29 (human colon carcinoma) and MCF-7 (human breast carcinoma) and for the cytotoxicity assays against CV-1 (monkey kidney fibroblast) and BHK (Hamster kidney fibroblast).
(§2) Scoring is performed as follows: (-) no activity - the number of cells is equal to the control of growth, 0-40% cell inhibition (+) low activity - numbers of cells are reduced by approx 50-60% (++) good activity - numbers of cells are reduced by approx 70-90% (+++) very good activity - there is 100% cell inhibition [(+) is the approximate IC₅₀]

[2] = tested on: A-549 (human lung carcinoma); experiment: General anti-tumour assay, A-549; format: cell-based
Method: as §1, §2

[3] = tested on: HT-29 (human colon carcinoma); experiment: General anti-tumour assay, HT-29; format: cell-based
Method: as §1, §2

[4] = tested on: MCF-7 (human breast carcinoma); experiment: General anti-tumour assay, MCF-7; format: cell-based
Method: as §1, §2

[5] = tested on: CV-1 (monkey kidney fibroblast); experiment: Cytotoxicity assay, CV-1; format: cell-based
Method: as §1, §2

[6] = tested on: BHK (Hamster kidney fibroblast); experiment: Cytotoxicity assay, BHK; format: cell-based
Method: as §1, §2

[7] = tested on: HSV-1 (herpes simplex virus, type 1); experiment: General anti-viral assay, HSV-1 in CV-1 cells (plaque reduction); format: cell-based; conditions: Human alphaherpesvirus 1, CV-1, read-out: IC50 µg/ml approx
[8] = tested on: VSV (Vesicular Stomatitis Virus); experiment: microbe, parasite or virus in culture; format: cell-based; conditions: BHK, read-out: IC50 µg/ml approx
[9] = tested on: BHK cells

CC(C)=CC(=O)CC(C)C1CCC(C)c2c1cc(C)c1c2OCO1 (stereo not drawn) [AH-3, Helioporin C]
IC50 ([1]; Mus musculus, P388, P-388, read-out: IC50 µg/ml approx): ~1 µg/mL (≈ 3.04 µM) | activity (cell inhibition) ([1]; P-388, TEST CONC (µg) 0.2): - ((-) no activity - the number of cells is equal to the control of growth, 0-40% cell inhibition) | activity (cell inhibition) ([1]; P-388, TEST CONC (µg) 0.5): - ((-) no activity - the number of cells is equal to the control of growth, 0-40% cell inhibition) | activity (cell inhibition) ([1]; P-388, TEST CONC (µg) 1): + ((+) low activity - numbers of cells are reduced by approx 50-60%) | activity (cell inhibition) ([1]; P-388, TEST CONC (µg) 2): ++ ((++) good activity - numbers of cells are reduced by approx 70-90%) | activity (cell inhibition) ([1]; P-388, TEST CONC (µg) 5): +++ ((+++) very good activity - there is 100% cell inhibition) | activity (cell inhibition) ([1]; P-388, TEST CONC (µg) 10): +++ ((+++) very good activity - there is 100% cell inhibition) | activity (cell inhibition) ([1]; P-388, TEST CONC (µg) 20): +++ ((+++) very good activity - there is 100% cell inhibition) | activity (cell inhibition) ([2]; A-549, TEST CONC (µg) 0.2): - ((-) no activity - the number of cells is equal to the control of growth, 0-40% cell inhibition) | activity (cell inhibition) ([2]; A-549, TEST CONC (µg) 0.5): - ((-) no activity - the number of cells is equal to the control of growth, 0-40% cell inhibition) | activity (cell inhibition) ([2]; A-549, TEST CONC (µg) 1): - ((-) no activity - the number of cells is equal to the control of growth, 0-40% cell inhibition) | activity (cell inhibition) ([2]; A-549, TEST CONC (µg) 2): - ((-) no activity - the number of cells is equal to the control of growth, 0-40% cell inhibition) | activity (cell inhibition) ([2]; A-549, TEST CONC (µg) 5): + ((+) low activity - numbers of cells are reduced by approx 50-60%) | activity (cell inhibition) ([2]; A-549, TEST CONC (µg) 10): +++ ((+++) very good activity - there is 100% cell inhibition) | activity (cell inhibition) ([2]; A-549, TEST CONC (µg) 20): +++ ((+++) very good activity - there is 100% cell inhibition) | IC50 ([2]; Homo sapiens, A549, A-549, read-out: IC50 µg/ml approx): ~5 µg/mL (≈ 15.2 µM) | activity (cell inhibition) ([3]; HT-29, TEST CONC (µg) 0.2): - ((-) no activity - the number of cells is equal to the control of growth, 0-40% cell inhibition) | activity (cell inhibition) ([3]; HT-29, TEST CONC (µg) 0.5): - ((-) no activity - the number of cells is equal to the control of growth, 0-40% cell inhibition) | activity (cell inhibition) ([3]; HT-29, TEST CONC (µg) 1): - ((-) no activity - the number of cells is equal to the control of growth, 0-40% cell inhibition) | activity (cell inhibition) ([3]; HT-29, TEST CONC (µg) 2): + ((+) low activity - numbers of cells are reduced by approx 50-60%) | activity (cell inhibition) ([3]; HT-29, TEST CONC (µg) 5): ++ ((++) good activity - numbers of cells are reduced by approx 70-90%) | activity (cell inhibition) ([3]; HT-29, TEST CONC (µg) 10): +++ ((+++) very good activity - there is 100% cell inhibition) | activity (cell inhibition) ([3]; HT-29, TEST CONC (µg) 20): +++ ((+++) very good activity - there is 100% cell inhibition) | IC50 ([3]; Homo sapiens, HT-29, read-out: IC50 µg/ml approx): ~2 µg/mL (≈ 6.09 µM) | IC50 ([4]; Homo sapiens, MCF7, MCF-7, read-out: IC50 µg/ml approx): ~5 µg/mL (≈ 15.2 µM) | activity (cell inhibition) ([4]; MCF-7, TEST CONC (µg) 0.2): - ((-) no activity - the number of cells is equal to the control of growth, 0-40% cell inhibition) | activity (cell inhibition) ([4]; MCF-7, TEST CONC (µg) 0.5): - ((-) no activity - the number of cells is equal to the control of growth, 0-40% cell inhibition) | activity (cell inhibition) ([4]; MCF-7, TEST CONC (µg) 1): - ((-) no activity - the number of cells is equal to the control of growth, 0-40% cell inhibition) | activity (cell inhibition) ([4]; MCF-7, TEST CONC (µg) 2): - ((-) no activity - the number of cells is equal to the control of growth, 0-40% cell inhibition) | activity (cell inhibition) ([4]; MCF-7, TEST CONC (µg) 5): + ((+) low activity - numbers of cells are reduced by approx 50-60%) | activity (cell inhibition) ([4]; MCF-7, TEST CONC (µg) 10): ++ ((++) good activity - numbers of cells are reduced by approx 70-90%) | activity (cell inhibition) ([4]; MCF-7, TEST CONC (µg) 20): +++ ((+++) very good activity - there is 100% cell inhibition) | activity (cell inhibition) ([5]; CV-1, TEST CONC (µg) 0.2): - ((-) no activity - the number of cells is equal to the control of growth, 0-40% cell inhibition) | activity (cell inhibition) ([5]; CV-1, TEST CONC (µg) 0.5): - ((-) no activity - the number of cells is equal to the control of growth, 0-40% cell inhibition) | activity (cell inhibition) ([5]; CV-1, TEST CONC (µg) 1): - ((-) no activity - the number of cells is equal to the control of growth, 0-40% cell inhibition) | activity (cell inhibition) ([5]; CV-1, TEST CONC (µg) 2): - ((-) no activity - the number of cells is equal to the control of growth, 0-40% cell inhibition) | activity (cell inhibition) ([5]; CV-1, TEST CONC (µg) 5): - ((-) no activity - the number of cells is equal to the control of growth, 0-40% cell inhibition) | activity (cell inhibition) ([5]; CV-1, TEST CONC (µg) 10): ++ ((++) good activity - numbers of cells are reduced by approx 70-90%) | activity (cell inhibition) ([5]; CV-1, TEST CONC (µg) 20): +++ ((+++) very good activity - there is 100% cell inhibition) | IC50 ([5]; Primates, CV-1, read-out: IC50 µg/ml approx): 5 to 10 µg/mL (≈ 15.2 to 30.4 µM) | IC50 ([6]; Mesocricetus auratus, read-out: IC50 µg/ml approx): ~1 µg/mL (≈ 3.04 µM) | activity (cell inhibition) ([6]; TEST CONC (µg) 0.2): - ((-) no activity - the number of cells is equal to the control of growth, 0-40% cell inhibition) | activity (cell inhibition) ([6]; TEST CONC (µg) 0.5): - ((-) no activity - the number of cells is equal to the control of growth, 0-40% cell inhibition) | activity (cell inhibition) ([6]; TEST CONC (µg) 1): + ((+) low activity - numbers of cells are reduced by approx 50-60%) | activity (cell inhibition) ([6]; TEST CONC (µg) 2): +++ ((+++) very good activity - there is 100% cell inhibition) | activity (cell inhibition) ([6]; TEST CONC (µg) 5): +++ ((+++) very good activity - there is 100% cell inhibition) | activity (cell inhibition) ([6]; TEST CONC (µg) 10): +++ ((+++) very good activity - there is 100% cell inhibition) | activity (cell inhibition) ([6]; TEST CONC (µg) 20): +++ ((+++) very good activity - there is 100% cell inhibition) | IC50 [7]: ~40 µg/mL (≈ 122 µM) | IC50 [8]: > 40 µg/mL | cytotoxicity (inhibition zone on the cell sheet) [9]: 0-
